Source: patent US11981658B2, “Substituted aminopyridine compounds as EGFR inhibitors” (YUHAN CORPORATION, priority 2021, dated 2024)
Read-outs that look alike come from different tables or passages of the source.

Experiments:
EGFR Del19/C797S = EGFR Del19/C797S (Homo sapiens, UniProt P00533, C797S/DEL746-750); experiment: Biochemical EGFR kinase inhibition assay (Lance Ultra TR-FRET), double mutant del19/C797S
In short: (§1)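 Step 1: compound in kinase buffer, 0.003–10 μM. Step 2: kinase reaction 1 h at room temperature. Step 4: TR-FRET read at 615/665 nm; IC50 calculated.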

EGFR L858R/C797S = EGFR L858R/C797S (Homo sapiens, UniProt P00533, C797S/L858R); experiment: Biochemical EGFR kinase inhibition assay (Lance Ultra TR-FRET), double mutant L858R/C797S
In short: as §1

EGFR Del19/T790M/C797S = EGFR Del19/T790M/C797S (Homo sapiens, UniProt P00533, C797S/DEL746-750/T790M); experiment: Biochemical EGFR kinase inhibition assay (Lance Ultra TR-FRET), triple mutant del19/T790M/C797S
In short: as §1

EGFR L858R/T790M/C797S = EGFR L858R/T790M/C797S (Homo sapiens, UniProt P00533, C797S/L858R/T790M); experiment: Biochemical EGFR kinase inhibition assay (Lance Ultra TR-FRET), triple mutant L858R/T790M/C797S
In short: as §1

EGFR wildtype (WT) = EGFR wildtype (WT) (Homo sapiens, UniProt P00533); experiment: Biochemical EGFR kinase inhibition assay (Lance Ultra TR-FRET), wildtype
In short: as §1

[1] = ATP at Km, read-out: IC50 Del19/C797S (nM), Km ATP
[2] = IC50 Del19/C797S (nM), 100 μM ATP
[3] = ATP at Km, read-out: IC50 L858R/C797S (nM), Km ATP
[4] = IC50 L858R/C797S (nM), 100 μM ATP
[5] = ATP at Km, read-out: IC50 Del19/T790M/C797S (nM), Km ATP
[6] = IC50 Del19/T790M/C797S (nM), 100 μM ATP
[7] = ATP at Km, read-out: IC50 L858R/T790M/C797S (nM), Km ATP
[8] = IC50 L858R/T790M/C797S (nM), 100 μM ATP
[9] = ATP at Km, read-out: IC50 WT (nM), Km ATP

Chain of EGFR wildtype (WT) (P00533 25-1210): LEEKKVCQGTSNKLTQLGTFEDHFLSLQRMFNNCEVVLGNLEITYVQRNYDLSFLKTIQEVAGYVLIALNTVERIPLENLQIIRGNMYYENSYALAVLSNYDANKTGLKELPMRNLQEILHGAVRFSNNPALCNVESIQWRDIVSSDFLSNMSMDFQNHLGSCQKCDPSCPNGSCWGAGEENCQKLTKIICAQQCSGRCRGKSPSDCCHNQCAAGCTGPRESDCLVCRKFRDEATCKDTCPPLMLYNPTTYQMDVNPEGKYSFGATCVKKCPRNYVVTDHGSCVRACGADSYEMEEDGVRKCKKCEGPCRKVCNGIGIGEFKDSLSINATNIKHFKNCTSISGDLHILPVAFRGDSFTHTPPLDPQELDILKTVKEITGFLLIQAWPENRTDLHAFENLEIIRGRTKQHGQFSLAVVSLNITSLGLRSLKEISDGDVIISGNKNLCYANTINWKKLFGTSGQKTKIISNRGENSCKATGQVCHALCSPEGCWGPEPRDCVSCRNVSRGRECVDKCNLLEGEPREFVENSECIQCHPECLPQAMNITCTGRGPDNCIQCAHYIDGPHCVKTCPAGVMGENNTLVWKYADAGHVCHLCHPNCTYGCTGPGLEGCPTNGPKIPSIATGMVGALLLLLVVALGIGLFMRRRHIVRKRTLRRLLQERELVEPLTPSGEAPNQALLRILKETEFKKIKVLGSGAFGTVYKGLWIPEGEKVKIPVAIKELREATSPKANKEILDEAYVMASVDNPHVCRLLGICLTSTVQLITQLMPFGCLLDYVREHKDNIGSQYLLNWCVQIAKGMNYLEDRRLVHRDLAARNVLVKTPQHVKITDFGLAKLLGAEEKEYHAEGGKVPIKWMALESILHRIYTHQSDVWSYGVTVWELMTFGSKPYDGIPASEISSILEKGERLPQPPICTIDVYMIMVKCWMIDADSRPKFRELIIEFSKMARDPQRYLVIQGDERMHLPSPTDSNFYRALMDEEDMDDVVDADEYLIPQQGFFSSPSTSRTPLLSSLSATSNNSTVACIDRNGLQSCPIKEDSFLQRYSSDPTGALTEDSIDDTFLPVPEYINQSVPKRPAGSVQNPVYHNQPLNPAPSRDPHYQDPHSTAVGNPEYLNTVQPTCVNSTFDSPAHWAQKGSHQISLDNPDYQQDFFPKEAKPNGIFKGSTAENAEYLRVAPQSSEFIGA
Chain of EGFR Del19/C797S (P00533 with tags, fused parts or gaps DEL746-750/C797S): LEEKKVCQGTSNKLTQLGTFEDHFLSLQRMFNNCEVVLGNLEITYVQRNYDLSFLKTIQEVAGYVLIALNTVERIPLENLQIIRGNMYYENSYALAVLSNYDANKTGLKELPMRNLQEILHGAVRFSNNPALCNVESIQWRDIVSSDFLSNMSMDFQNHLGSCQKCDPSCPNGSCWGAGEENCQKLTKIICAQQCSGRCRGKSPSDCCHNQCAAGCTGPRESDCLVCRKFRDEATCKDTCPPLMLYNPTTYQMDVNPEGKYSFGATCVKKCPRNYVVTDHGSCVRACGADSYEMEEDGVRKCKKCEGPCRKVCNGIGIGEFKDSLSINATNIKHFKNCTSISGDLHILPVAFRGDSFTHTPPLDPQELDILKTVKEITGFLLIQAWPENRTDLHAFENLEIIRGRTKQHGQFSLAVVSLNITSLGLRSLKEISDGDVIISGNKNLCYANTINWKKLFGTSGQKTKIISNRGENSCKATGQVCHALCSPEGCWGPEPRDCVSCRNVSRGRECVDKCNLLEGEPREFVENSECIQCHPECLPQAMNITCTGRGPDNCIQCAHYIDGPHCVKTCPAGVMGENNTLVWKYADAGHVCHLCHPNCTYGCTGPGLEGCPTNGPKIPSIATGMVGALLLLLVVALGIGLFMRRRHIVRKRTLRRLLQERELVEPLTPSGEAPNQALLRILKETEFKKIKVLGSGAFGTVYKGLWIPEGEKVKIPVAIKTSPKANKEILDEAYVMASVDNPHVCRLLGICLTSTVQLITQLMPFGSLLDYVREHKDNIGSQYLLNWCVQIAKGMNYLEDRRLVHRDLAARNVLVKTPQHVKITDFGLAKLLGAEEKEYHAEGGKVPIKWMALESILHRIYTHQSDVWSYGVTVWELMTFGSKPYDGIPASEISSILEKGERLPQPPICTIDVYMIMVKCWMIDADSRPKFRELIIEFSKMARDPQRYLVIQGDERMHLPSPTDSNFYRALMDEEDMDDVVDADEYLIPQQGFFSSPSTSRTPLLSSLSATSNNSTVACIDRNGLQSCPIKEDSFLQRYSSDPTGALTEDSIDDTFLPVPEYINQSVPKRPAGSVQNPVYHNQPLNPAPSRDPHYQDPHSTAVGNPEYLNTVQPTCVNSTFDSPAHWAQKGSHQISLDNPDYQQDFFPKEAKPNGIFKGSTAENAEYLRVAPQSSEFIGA
Chain of EGFR L858R/T790M/C797S (P00533 25-1210 T790M/C797S/L858R): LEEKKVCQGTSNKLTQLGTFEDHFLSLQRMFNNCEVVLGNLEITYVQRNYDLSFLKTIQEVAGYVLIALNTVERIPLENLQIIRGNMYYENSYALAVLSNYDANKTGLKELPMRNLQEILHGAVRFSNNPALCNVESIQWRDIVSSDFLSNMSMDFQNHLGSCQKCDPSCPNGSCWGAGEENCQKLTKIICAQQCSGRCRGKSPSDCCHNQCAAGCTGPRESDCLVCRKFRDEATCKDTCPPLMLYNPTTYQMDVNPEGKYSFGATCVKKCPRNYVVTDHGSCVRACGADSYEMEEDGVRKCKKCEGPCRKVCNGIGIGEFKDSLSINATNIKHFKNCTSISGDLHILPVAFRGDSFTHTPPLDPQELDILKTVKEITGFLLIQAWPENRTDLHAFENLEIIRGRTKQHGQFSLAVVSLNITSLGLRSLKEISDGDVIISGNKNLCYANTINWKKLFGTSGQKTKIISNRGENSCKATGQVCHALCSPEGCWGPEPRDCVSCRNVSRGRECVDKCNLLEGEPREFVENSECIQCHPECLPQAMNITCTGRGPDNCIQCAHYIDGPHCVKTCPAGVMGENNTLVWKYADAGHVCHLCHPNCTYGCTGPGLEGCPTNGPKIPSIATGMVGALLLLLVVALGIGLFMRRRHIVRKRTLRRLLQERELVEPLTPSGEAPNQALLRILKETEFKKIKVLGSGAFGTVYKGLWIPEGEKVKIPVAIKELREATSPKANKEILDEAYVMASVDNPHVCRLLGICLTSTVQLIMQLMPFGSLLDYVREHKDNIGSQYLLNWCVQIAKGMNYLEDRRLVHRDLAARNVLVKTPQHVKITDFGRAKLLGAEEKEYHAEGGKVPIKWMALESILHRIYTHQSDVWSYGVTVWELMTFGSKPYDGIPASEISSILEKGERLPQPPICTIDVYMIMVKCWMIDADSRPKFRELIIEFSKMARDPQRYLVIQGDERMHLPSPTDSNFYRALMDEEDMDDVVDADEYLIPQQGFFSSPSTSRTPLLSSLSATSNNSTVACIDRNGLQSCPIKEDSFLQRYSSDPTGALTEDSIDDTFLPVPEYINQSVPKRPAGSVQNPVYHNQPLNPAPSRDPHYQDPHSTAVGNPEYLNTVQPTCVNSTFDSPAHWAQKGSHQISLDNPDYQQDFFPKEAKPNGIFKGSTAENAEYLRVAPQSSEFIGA
Chain of EGFR L858R/C797S (P00533 25-1210 C797S/L858R): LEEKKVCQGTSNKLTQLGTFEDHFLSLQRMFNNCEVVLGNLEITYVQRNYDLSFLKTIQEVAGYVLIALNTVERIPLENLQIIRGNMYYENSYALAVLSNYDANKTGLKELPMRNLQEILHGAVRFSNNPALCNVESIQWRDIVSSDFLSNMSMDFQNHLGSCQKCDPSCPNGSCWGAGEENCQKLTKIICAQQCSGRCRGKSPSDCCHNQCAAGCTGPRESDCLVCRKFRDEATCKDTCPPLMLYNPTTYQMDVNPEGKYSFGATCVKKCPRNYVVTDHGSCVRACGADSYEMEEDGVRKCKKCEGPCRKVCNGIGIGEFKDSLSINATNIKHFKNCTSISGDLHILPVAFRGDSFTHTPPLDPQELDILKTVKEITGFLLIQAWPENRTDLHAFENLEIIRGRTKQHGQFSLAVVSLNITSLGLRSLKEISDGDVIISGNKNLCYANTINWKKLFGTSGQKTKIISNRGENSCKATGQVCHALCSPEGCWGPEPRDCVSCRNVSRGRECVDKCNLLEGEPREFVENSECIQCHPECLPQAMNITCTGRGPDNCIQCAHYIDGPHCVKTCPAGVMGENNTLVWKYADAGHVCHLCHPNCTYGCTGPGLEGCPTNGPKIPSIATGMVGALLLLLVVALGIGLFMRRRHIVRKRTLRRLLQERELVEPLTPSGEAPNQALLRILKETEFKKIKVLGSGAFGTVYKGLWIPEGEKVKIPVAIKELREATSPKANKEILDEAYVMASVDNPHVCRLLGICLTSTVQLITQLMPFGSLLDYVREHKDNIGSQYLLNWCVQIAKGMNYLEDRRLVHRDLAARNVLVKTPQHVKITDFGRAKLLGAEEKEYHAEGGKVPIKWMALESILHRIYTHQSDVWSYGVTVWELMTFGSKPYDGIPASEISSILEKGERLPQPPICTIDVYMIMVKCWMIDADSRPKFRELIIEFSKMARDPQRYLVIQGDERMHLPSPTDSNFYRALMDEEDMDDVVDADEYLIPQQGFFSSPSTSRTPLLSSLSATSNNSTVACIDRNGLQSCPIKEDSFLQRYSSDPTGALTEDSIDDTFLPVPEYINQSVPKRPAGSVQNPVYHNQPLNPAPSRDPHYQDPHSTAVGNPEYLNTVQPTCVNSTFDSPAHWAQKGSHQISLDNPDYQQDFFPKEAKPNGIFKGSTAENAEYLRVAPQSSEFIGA

SMILES | IC50 (EGFR Del19/C797S; [1]) [nM] | IC50 (EGFR Del19/C797S; [2]) [nM] | IC50 (EGFR L858R/C797S; [3]) [nM] | IC50 (EGFR L858R/C797S; [4]) [nM] | IC50 (EGFR Del19/T790M/C797S; [5]) [nM] | IC50 (EGFR Del19/T790M/C797S; [6]) [nM] | IC50 (EGFR L858R/T790M/C797S; [7]) [nM] | IC50 (EGFR L858R/T790M/C797S; [8]) [nM] | IC50 (EGFR wildtype (WT); [9]) [nM] | IC50 (EGFR wildtype (WT); IC50 WT (nM), 100 μM ATP) [nM]
CC1(CO)CCN(c2cc(Nc3ccnc(-c4cnn(S(=O)(=O)C5CC5)c4)n3)ncc2C#Cc2cnc(CN3CCOCC3)s2)CC1 [Example 192, (1-(2-((2-(1-(Cyclopropylsulfonyl)-1H-pyrazol-4-yl)pyrimidin-4-yl)amino)-5-((2-(morpholinomethyl)thiazol-5-yl)ethynyl)pyridin-4-yl)-4-methylpiperidin-4-yl)methanol] | 1.1 | 1.8 | 2.1 | 4.5 | 1 | 1.5 | 0.4 | 1.3 | 6.1 | 1480
CC1(CO)CCN(c2cc(Nc3ccnc(-c4cnn(S(=O)(=O)C5CC5)c4)n3)ncc2C#Cc2ncc(CN3CCOCC3)cn2)CC1 [Example 193, (1-(2-((2-(1-(Cyclopropylsulfonyl)-1H-pyrazol-4-yl)pyrimidin-4-yl)amino)-5-((5-(morpholinomethyl)pyrimidin-2-yl)ethynyl)pyridin-4-yl)-4-methylpiperidin-4-yl)methanol] | 0.4 | 0.7 | 0.9 | 6.6 | 0.5 | 0.6 | 0.2 | 0.5 | 2.2 | 1270
O=S(=O)(C1CC1)n1cc(-c2nccc(Nc3cc(N[C@H]4CC[C@@H](O)CC4)c(C#Cc4ncc(CN5CCOCC5)cn4)cn3)n2)cn1 [Example 194, (1s,4s)-4-((2-((2-(1-(Cyclopropylsulfonyl)-1H-pyrazol-4-yl)pyrimidin-4-yl)amino)-5-((5-(morpholinomethyl)pyrimidin-2-yl)ethynyl)pyridin-4-yl)amino)cyclohexan-1-ol] | 2.2 | 3.3 | 3.4 | 169 | 0.5 | 0.5 | 0.2 | 0.7 | 26.1 | > 10000
CC1(CO)CCN(c2cc(Nc3ccnc(-c4cnn(S(=O)(=O)C5CC5)c4)n3)ncc2C#CC2(O)CCOCC2)CC1 [Example 195, 4-((6-((2-(1-(cyclopropylsulfonyl)-1H-pyrazol-4-yl)pyrimidin-4-yl)amino)-4-(4-(hydroxymethyl)-4-methylpiperidin-1-yl)pyridin-3-yl)ethynyl)tetrahydro-2H-pyran-4-ol] | 2.4 | 2.7 | 2.3 | 14.8 | 0.3 | 0.4 | 0.1 | 0.4 | 19.6 | 8540
O=S(=O)(C1CC1)n1cc(-c2nccc(Nc3cc(N[C@H]4CC[C@@H](O)CC4)c(C#CC4(O)CCOCC4)cn3)n2)cn1 [Example 196, 4-((6-((2-(1-(Cyclopropylsulfonyl)-1H-pyrazol-4-yl)pyrimidin-4-yl)amino)-4-(((1 s, 4s)-4-hydroxycyclohexyl)amino)pyridin-3-yl)ethynyl)tetrahydro-2H-pyran-4-ol] | 6 | 9.8 | 6.8 | 50.6 | 0.7 | 0.6 | 0.3 | 1.1 | 68 | > 10000
CC1(CO)CCN(c2cc(Nc3ccnc(-c4cnn(S(=O)(=O)C5CC5)c4)n3)ncc2C#CC2CCOC2)CC1 (stereo not shown) [Example 197, (1-(2-((2-(1-(Cyclopropylsulfonyl)-1H-pyrazol-4-yl)pyrimidin-4-yl)amino)-5-((tetrahydrofuran-3-yl)ethynyl)pyridin-4-yl)-4-methylpiperidin-4-yl)methanol] | 0.6 | 0.8 | 0.8 | 8.9 | 0.3 | 0.3 | 0.1 | 0.3 | 5.6 | 1560
O=S(=O)(C1CC1)n1cc(-c2nccc(Nc3cc(NC4CCC(O)CC4)c(C#CC4CCOC4)cn3)n2)cn1 (stereo not shown) [Example 198, (1s,4s)-4-((2-((2-(1-(Cyclopropylsulfonyl)-1H-pyrazol-4-yl)pyrimidin-4-yl)amino)-5-((tetrahydrofuran-3-yl)ethynyl)pyridin-4-yl)amino)cyclohexan-1-ol] | 2.1 | 3.6 | 2.5 | 50.8 | 0.4 | 0.5 | 0.2 | 0.6 | 25.1 | 5980
CC(C)Nc1cc(Nc2ccnc(-c3cnn(S(=O)(=O)C4CC4)c3)n2)ncc1C#CCN1CCS(=O)(=O)CC1 [Example 201, 4-(3-(6-((2-(1-(Cyclopropylsulfonyl)-1H-pyrazol-4-yl)pyrimidin-4-yl)amino)-4-(isopropylamino)pyridin-3-yl)prop-2-yn-1-yl)thiomorpholine 1,1-dioxide] | 36.7 | – | 141 | – | 1.7 | – | 1.2 | – | 292 | –
CC(C)Nc1cc(Nc2ccnc(-c3cnn(S(=O)(=O)C4CC4)c3)n2)ncc1C#CCN1CCOCC1 [Example 202, N^2-(2-(1-(Cyclopropylsulfonyl)-1H-pyrazol-4-yl)pyrimidin-4-yl)-N^4-isopropyl-5-(3-morpholinoprop-1-yn-1-yl)pyridine-2,4-diamine] | 43.4 | – | 92.7 | – | 2.2 | – | 1.6 | – | 312 | –
CC(C)Nc1cc(Nc2ccnc(-c3cnn(S(=O)(=O)C4CC4)c3)n2)ncc1C#CCN1CCCC1 [Example 203, N^2-(2-(1-(Cyclopropylsulfonyl)-1H-pyrazol-4-yl)pyrimidin-4-yl)-N^4-isopropyl-5-(3-(pyrrolidin-1-yl)prop-1-yn-1-yl)pyridine-2,4-diamine] | 68.1 | – | 110 | – | 2.2 | – | 1.4 | – | 437 | –
CC(C)Nc1cc(Nc2ccnc(-c3cnn(S(=O)(=O)C4CC4)c3)n2)ncc1C#CCCCCNC(=O)N1CCOCC1 [Example 209, N-(6-(6-((2-(1-(Cyclopropylsulfonyl)-1H-pyrazol-4-yl)pyrimidin-4-yl)amino)-4-(isopropylamino)pyridin-3-yl)hex-5-yn-1-yl)morpholine-4-carboxamide] | – | 120 | – | 112 | – | 2.6 | – | 4.4 | – | > 10000
Cc1nc(C#Cc2cnc(Nc3ccnc(-c4cnn(S(=O)(=O)C5CC5)c4)n3)cc2N2CCC(O)CC2)cs1 [Example 211, 1-(2-((2-(1-(Cyclopropylsulfonyl)-1H-pyrazol-4-yl)pyrimidin-4-yl)amino)-5-((2-methylthiazol-4-yl)ethynyl)pyridin-4-yl)piperidin-4-ol] | – | 32.3 | – | 66.2 | – | 1.4 | – | 6.9 | – | > 10000
O=S(=O)(C1CC1)n1cc(-c2nccc(Nc3cc(N4CCC(O)CC4)c(C#Cc4csc(CF)n4)cn3)n2)cn1 [Example 212, 1-(2-((2-(1-(Cyclopropylsulfonyl)-1H-pyrazol-4-yl)pyrimidin-4-yl)amino)-5-((2-(fluoromethyl)thiazol-4-yl)ethynyl)pyridin-4-yl)piperidin-4-ol] | – | 44.8 | – | 97.6 | – | 1.5 | – | 8.9 | – | > 10000
Cn1cnc(C#Cc2cnc(Nc3ccnc(-c4cnn(S(=O)(=O)C5CC5)c4)n3)cc2N2CCC(O)CC2)c1 [Example 213, 1-(2-((2-(1-(Cyclopropylsulfonyl)-1H-pyrazol-4-yl)pyrimidin-4-yl)amino)-5-((1-methyl-1H-imidazol-4-yl)ethynyl)pyridin-4-yl)piperidin-4-ol] | – | 8.8 | – | 37.5 | – | 0.7 | – | 1.4 | – | > 10000
Cn1cnc(C#Cc2cnc(Nc3ccnc(-c4cnn(S(=O)(=O)C5CC5)c4)n3)cc2N2CCC(O)CC2)n1 [Example 214, 1-(2-((2-(1-(Cyclopropylsulfonyl)-1H-pyrazol-4-yl)pyrimidin-4-yl)amino)-5-((1-methyl-1H-1,2,4-triazol-3-yl)ethynyl)pyridin-4-yl)piperidin-4-ol] | – | 109 | – | 274 | – | 1.4 | – | 4 | – | > 10000
O=S(=O)(C1CC1)n1cc(-c2nccc(Nc3cc(N4CCC(O)CC4)c(C#Cc4ccc(N5CCOCC5)nc4)cn3)n2)cn1 [Example 215, 1-(2-((2-(1-(Cyclopropylsulfonyl)-1H-pyrazol-4-yl)pyrimidin-4-yl)amino)-5-((6-morpholinopyridin-3-yl)ethynyl)pyridin-4-yl)piperidin-4-ol] | – | 46.9 | – | 213 | – | 2.9 | – | 11.4 | – | > 10000
